Source: article PMC9848300, “Discovery of novel enasidenib analogues targeting inhibition of mutant isocitrate dehydrogenase 2 as antileukaemic agents” (Journal of Enzyme Inhibition and Medicinal Chemistry, 2023)

What was measured:
[1] = tested on: LOX IMVI; assay: NCI 60 antitumor screening (single dose / five doses); format: cell-based; conditions: Homo sapiens
[2] = tested on: K-562; assay: as above; format: cell-based; conditions: Homo sapiens, K562
[3] = tested on: MDA-MB-435; assay: as above; format: cell-based; conditions: Homo sapiens
[4] = tested on: HCT-116; assay: as above; format: cell-based; conditions: Homo sapiens
[5] = tested on: 786-0; assay: as above; format: cell-based; conditions: Homo sapiens
[6] = tested on: T-47D; assay: as above; format: cell-based; conditions: Homo sapiens, T47D
[7] = tested on: UO-31; assay: as above; format: cell-based; conditions: Homo sapiens
[8] = tested on: HOP-92; assay: as above; format: cell-based; conditions: Homo sapiens
[9] = tested on: MOLT-4; assay: as above; format: cell-based; conditions: Homo sapiens
[10] = tested on: ACHN; assay: as above; format: cell-based; conditions: Homo sapiens
[11] = tested on: SNB-75; assay: as above; format: cell-based; conditions: Homo sapiens
[12] = tested on: HCT-15; assay: as above; format: cell-based; conditions: Homo sapiens
[13] = tested on: SF-539; assay: as above; format: cell-based; conditions: Homo sapiens
[14] = tested on: SN 12C; assay: as above; format: cell-based; conditions: Homo sapiens, SN12C
[15] = tested on: CCRF-CEM; assay: as above; format: cell-based; conditions: Homo sapiens
[16] = tested on: SR; assay: as above; format: cell-based; conditions: Homo sapiens
[17] = tested on: HT29; assay: as above; format: cell-based, human; conditions: Homo sapiens
[18] = tested on: RPMI-8226; assay: as above; format: cell-based; conditions: Homo sapiens
[19] = tested on: HL-60(TB); assay: as above; format: cell-based; conditions: Homo sapiens
[20] = tested on: UACC-257; assay: as above; format: cell-based; conditions: Homo sapiens
[21] = tested on: UACC-62; assay: as above; format: cell-based; conditions: Homo sapiens
[22] = tested on: NCI/ADR-RES; assay: as above; format: cell-based; conditions: Homo sapiens
[23] = tested on: BT-549; assay: as above; format: cell-based; conditions: Homo sapiens
[24] = tested on: MALME-3M; assay: as above; format: cell-based; conditions: Homo sapiens
[25] = tested on: 60 human subpanel cancer cell lines; assay: NCI 60 antitumor screening, mean over the panel (single dose); format: cell-based; conditions: mean over 60 cancer cell lines, single dose 10 μM
Method: (§1) Initially, the anticancer effects of target compounds have been assessed at a single (10 μM) dose. The obtained data have been reported as mean-graph of the percent growth (G%) of the treated cancer cells. Percentage growth inhibition (GI%) is calculated (100 − G%) and pronounced in Table 1. […] Target compounds in series (III) with manipulated linkers disclosed lower potency. Superiorly, eight s-triazine derivatives from the three series (6a, 6c, 6d, 7a, 7g, 7i, 7l, and 8b) have shown potent broad-spectrum anticancer activity against most the examined cell lines, whereas most of the remaining triazine derivatives, 20 derivatives, have exerted selective anti-proliferative actions towards certain cancer cell lines (Supplementary).
(§2) The antitumor screening was performed for 60 human cancer cell lines under the protocol of NCI (www.dtp.nci.nih.gov), the Drug Evaluation Branch, Bethesda, MD. All submitted compounds were nominated based on the degree of structural diversity and computer modelling techniques for evaluation of their anticancer activity. The screening process for antineoplastic activity passes through two successive levels, starting with the assessment of target compounds at a single dose of 10 μM against 60 cancer cell lines on nine types of human tumours. These experiments were done on a triplicate following. The output from the single‐dose screening was covered as a mean graph, and then, analysed by the COMPARE program. Finally, the compounds which disclosed subpanel cancer cell growth (G %) equal to or less than 10% in at least eight cancer cell lines get to pass the assessment against the 60 cell lines at five doses (0.01–100 μM). By using GraphPad Prism version 9.0 (Graphpad Software Inc., La Jolla, CA), GI50, TGI, as well as LC50 dose‐response parameters were computed and presented for each compound (Supplementary information)[55–57].

[26] = tested on: TK-10; assay: NCI 60 antitumor screening (single dose); format: cell-based; conditions: Homo sapiens; TK-10 (renal cancer), single dose 10 μM; read-out: Growth inhibition percentage (GI %)
Method: as §1, §2

[27] = tested on: HS 578T; assay: NCI 60 antitumor screening (single dose); format: cell-based; conditions: Homo sapiens; HS 578T (breast cancer), single dose 10 μM; read-out: Growth inhibition percentage (GI %)
Method: as §1, §2

[28] = tested on: M14; assay: NCI 60 antitumor screening (single dose); format: cell-based; conditions: Homo sapiens; M14 (melanoma), single dose 10 μM; read-out: Growth inhibition percentage (GI %)
Method: as §1, §2

[29] = tested on: MDA-MB-231/ATCC; assay: NCI 60 antitumor screening (single dose / five doses); format: cell-based; conditions: Homo sapiens

SMILES: Oc1ccccc1/C=N/Nc1nc(N/N=C/c2ccccc2O)nc(N2CCOCC2)n1 [compound 6a, 2-[(1e)-(2-{4-[(E)-2-[(2-Hydroxyphenyl)methylidene]hydrazin-1-yl]-6-(morpholin-4-yl)-1,3,5-triazin-2-yl}hydrazin-1-ylidene)methyl]phenol]
- inhibition at 10 µM ([1]; LOX IMVI (melanoma), single dose 10 μM, read-out: Growth inhibition percentage (GI %)): 96%
- GI50 ([1]; LOX IMVI, five doses (0.01–100 μM), read-out: GI50): 280 nM
- inhibition at 10 µM ([2]; K-562 (leukaemia), single dose 10 μM, read-out: Growth inhibition percentage (GI %)): 74.6%
- GI50 ([2]; K-562, five doses (0.01–100 μM), read-out: GI50): 680 nM
- inhibition at 10 µM ([3]; MDA-MB-435 (melanoma), single dose 10 μM, read-out: Growth inhibition percentage (GI %)): 41.1%
- GI50 ([3]; MDA-MB-435, five doses (0.01–100 μM), read-out: GI50): 9.53 µM
- inhibition at 10 µM ([4]; HCT-116 (colon cancer), single dose 10 μM, read-out: Growth inhibition percentage (GI %)): 80.8%
- GI50 ([4]; HCT-116, five doses (0.01–100 μM), read-out: GI50): 820 nM
- inhibition at 10 µM ([5]; 786-0, 786-0 (renal cancer), single dose 10 μM, read-out: Growth inhibition percentage (GI %)): 69.7%
- GI50 ([5]; 786-0, five doses (0.01–100 μM), read-out: GI50): 710 nM
- inhibition at 10 µM ([6]; T-47D (breast cancer), single dose 10 μM, read-out: Growth inhibition percentage (GI %)): 53.9%
- GI50 ([6]; T-47D, five doses (0.01–100 μM), read-out: GI50): 3.34 µM
- inhibition at 10 µM ([7]; UO-31 (renal cancer), single dose 10 μM, read-out: Growth inhibition percentage (GI %)): 80.2%
- GI50 ([7]; UO-31, five doses (0.01–100 μM), read-out: GI50): 370 nM
- inhibition at 10 µM ([8]; HOP-92 (non-small cell lung cancer), single dose 10 μM, read-out: Growth inhibition percentage (GI %)): 87.2%
- GI50 ([8]; HOP-92, five doses (0.01–100 μM), read-out: GI50): 1650 nM
- inhibition at 10 µM ([9]; MOLT-4 (leukaemia), single dose 10 μM, read-out: Growth inhibition percentage (GI %)): 54.9%
- GI50 ([9]; MOLT-4, five doses (0.01–100 μM), read-out: GI50): 1550 nM
- inhibition at 10 µM ([10]; ACHN (renal cancer), single dose 10 μM, read-out: Growth inhibition percentage (GI %)): 71.9%
- GI50 ([10]; ACHN, five doses (0.01–100 μM), read-out: GI50): 1580 nM
- inhibition at 10 µM ([11]; SNB-75 (CNS cancer), single dose 10 μM, read-out: Growth inhibition percentage (GI %)): 104%
- GI50 ([11]; SNB-75, five doses (0.01–100 μM), read-out: GI50): 1820 nM
- inhibition at 10 µM ([12]; HCT-15 (colon cancer), single dose 10 μM, read-out: Growth inhibition percentage (GI %)): 96.1%
- GI50 ([12]; HCT-15, five doses (0.01–100 μM), read-out: GI50): 240 nM
- inhibition at 10 µM ([13]; SF-539 (CNS cancer), single dose 10 μM, read-out: Growth inhibition percentage (GI %)): 48.2%
- GI50 ([13]; SF-539, five doses (0.01–100 μM), read-out: GI50): 7.29 µM
- inhibition at 10 µM ([14]; SN 12C (renal cancer), single dose 10 μM, read-out: Growth inhibition percentage (GI %)): 72.8%
- GI50 ([14]; SN 12C, five doses (0.01–100 μM), read-out: GI50): 18.3 µM
- inhibition at 10 µM ([15]; CCRF-CEM (leukaemia), single dose 10 μM, read-out: Growth inhibition percentage (GI %)): 57.6%
- GI50 ([15]; CCRF-CEM, five doses (0.01–100 μM), read-out: GI50): 530 nM
- inhibition at 10 µM ([16]; SR (leukaemia), single dose 10 μM, read-out: Growth inhibition percentage (GI %)): 84%
- GI50 ([16]; SR, five doses (0.01–100 μM), read-out: GI50): 320 nM
- GI50 ([17]; HT-29, HT29, five doses (0.01–100 μM), read-out: GI50): 5.89 µM
- inhibition at 10 µM ([17]; HT-29, HT29 (colon cancer), single dose 10 μM, read-out: Growth inhibition percentage (GI %)): 65.8%
- inhibition at 10 µM ([18]; RPMI-8226 (leukaemia), single dose 10 μM, read-out: Growth inhibition percentage (GI %)): 46.4%
- GI50 ([18]; RPMI-8226, five doses (0.01–100 μM), read-out: GI50): 2780 nM
- inhibition at 10 µM ([19]; HL-60(TB) (leukaemia), single dose 10 μM, read-out: Growth inhibition percentage (GI %)): 96.3%
- GI50 ([19]; HL-60(TB), five doses (0.01–100 μM), read-out: GI50): 190 nM
- inhibition at 10 µM ([20]; UACC-257 (melanoma), single dose 10 μM, read-out: Growth inhibition percentage (GI %)): 46.7%
- GI50 ([20]; UACC-257, five doses (0.01–100 μM), read-out: GI50): 6.53 µM
- inhibition at 10 µM ([21]; UACC-62 (melanoma), single dose 10 μM, read-out: Growth inhibition percentage (GI %)): 11.2%
- GI50 ([21]; UACC-62, five doses (0.01–100 μM), read-out: GI50): 2450 nM
- inhibition at 10 µM ([22]; NCI/ADR-RES (ovarian cancer), single dose 10 μM, read-out: Growth inhibition percentage (GI %)): 77.1%
- GI50 ([22]; NCI/ADR-RES, five doses (0.01–100 μM), read-out: GI50): 690 nM
- inhibition at 10 µM ([23]; BT-549 (breast cancer), single dose 10 μM, read-out: Growth inhibition percentage (GI %)): 23.7%
- GI50 ([23]; BT-549, five doses (0.01–100 μM), read-out: GI50): 5.19 µM
- inhibition at 10 µM ([24]; MALME-3M (melanoma), single dose 10 μM, read-out: Growth inhibition percentage (GI %)): 47.4%
- GI50 ([24]; MALME-3M, five doses (0.01–100 μM), read-out: GI50): 8.69 µM
- Mean GI % [25]: 66.07%
- inhibition at 10 µM [26]: 52%
- inhibition at 10 µM [27]: 53%
- inhibition at 10 µM [28]: 62.4%
- GI50 ([29]; MDA-MB-231/ ATCC, five doses (0.01–100 μM), read-out: GI50): 2420 nM
- inhibition at 10 µM ([29]; MDA-MB-231/ATCC (breast cancer), single dose 10 μM, read-out: Growth inhibition percentage (GI %)): 63.7%
